Source: patent US20140255432A1, “SILVESTROL, SILVESTROL ANALOGS AND USES THEREOF” (priority 2011, published 2014)

Assays:
interleukin-6 = assay: Real-time RT-PCR for NF-κB targets in LCL; format: cell-based, human; conditions: 10 nM in LCL (FIG. 45)
Excerpt: (§1) FIG. 41 presents data regarding NK cytotoxicity of K562 cells. […] FIG. 42 presents data regarding the cytotoxicity of LCLs pretreated with BZLF 1. […] BZLF1 antigen pulsed LCLs promoted enhanced killing in untreated and silvestrol-treated CTLs. FIG. 43 presents data relating to CD4 IFNgamma release with LCL pretreated with BZLF1. […] FIG. 44 presents data relating to CD4 IFNgamma release with LCL pretreated with BZLF 1. […] FIG. 45 presents data relating to interleukin-6 induction by silvestrol. […] FIG. 46 presents data relating to a change in LMP-1 expression following silvestrol treatment. […] Three cell lines were examined on days 1, 3, and 5 following treatment. FIG. 47 presents data relating to a change in EBNA1 expression following silvestrol treatment. Three cell lines were examined on days 1, 3, and 5 following treatment.

[1] = system: EBV LMP-1 oncogene transcript; assay: EBV LMP-1 oncogene transcript expression in LCL; format: cell-based, Epstein-Barr virus; conditions: three cell lines; days 1, 3, 5 (FIG. 46)
Excerpt: as §1

SMILES: COC(=O)[C@H]1[C@@H](O)[C@@]2(O)c3c(OC)cc(O[C@@H]4O[C@@H]([C@H](O)CO)CO[C@H]4OC)cc3O[C@@]2(c2ccc(OC)cc2)[C@@H]1c1ccccc1 [silvestrol]
- interleukin-6 expression (interleukin-6): induced
- expression of the EBV LMP-1 oncogene transcript [1]: decreased
